For two molecules, microsomal CLint and inhibition results are on record in patent US20240368133A1, “Compounds for the Treatment of Pain, in Particular, Neuropathic Pain, and/or Other Diseases or Disorders that are Associated with AT2R and/or AT2R Mediated Signaling” (Confo Therapeutics N.V., priority 2021, published 2024).

By microsomal CLint is commonly meant the rate of metabolic loss divided by the concentration. Low readings indicate slow turnover, high ones rapid turnover. As usually defined, the inhibition is the change of the read-out against control, counted positive when it falls.

A value given as a limit tells only on which side of the number the result lay.

Format in all cases: in vitro ADME
Data set [1] in a line: Liver microsomal stability, rat. Conditions: male, pH 7.4, liver microsomes. A general note: Liver microsomes are a subcellular fraction often used to study metabolism.
Data set [2] is described as follows: Liver microsomal stability, mouse. The conditions noted are these: male, pH 7.4, liver microsomes. The procedure: Mouse hepatic microsomes were isolated from pooled (50), perfused livers of male Balb/c mice. Rat hepatic microsomes were isolated from pooled (15), perfused livers of male Wistar rats. Isolation was performed according to the standard protocol (Hill, J. R. in Current Protocols in Pharmacology 7.8.1-7.8.11, Wiley Interscience, 2003). The batches of microsomes were tested for quality control using Imipramine, Propranolol and Verapamil as reference compounds.
Microsomal incubations were carried out in 96-well plates in 5 aliquots of 40 μL each (one for each time point). Liver microsomal incubation medium contained PBS (100 mM, pH 7.4), MgCl2 (3.3 mM), NADPH (3 mM), glucose-6-phosphate (5.3 mM), glucose-6-phosphate dehydrogenase (0.67 units/ml) with 0.42 mg of liver microsomal protein per ml. Control incubations were performed replacing the NADPH-cofactor system with PBS. Test compound (2 μM, final solvent concentration 1.6%) was incubated with microsomes at 37° C., shaking at 100 rpm. Incubations were performed in duplicates. Five time points over 40 minutes have been analyzed. The reactions were stopped by adding 12 volumes of 90% acetonitrile-water to incubation aliquots, followed by protein sedimentation by centrifuging at 5500 rpm for 3 minutes. […]. Supernatants were analyzed using the HPLC system coupled with tandem mass spectrometer (API3000 PE Sciex). Acquisition and analysis of the data were performed using Analyst 1.5.2 software (PE Sciex). The elimination constant (kel), half-life (t½) and intrinsic clearance (Clint) were determined in plot of […] versus time, using linear regression analysis:
Mouse hepatic microsomes were isolated from pooled, perfused livers of male CD1 mice. Rat hepatic microsomes were isolated from pooled, perfused livers of male Sprague Dawley rats. Dog hepatic microsomes were isolated from pooled, perfused livers of male Beagle dogs. The batches of microsomes were tested for quality control using Testosterone, Propranolol and Caffeine as reference compounds.
A 10 mM stock solution of compound in DMSO is diluted three-fold in DMSO. This pre-diluted compound solution is then further diluted to 2 μM in a 50 mM phosphate buffer (PBS, pH 7.4) and pre-warmed at 37° C. This compound dilution is mixed F2 with microsomal/cofactor mix at 37° C. under shaking at 300 rpm. Final reaction conditions are: 100 μL incubation volume, 1 μM of test compound (in duplicate), <0.1% DMSO, 0.5 mg/mL microsomes, 0.6 U/mL Glucose-6-phosphate-dehydrogenase (G6PDH, Roche, 10127671001), 3.3 mM MgCl2 (Sigma, M2670), 3.3 mM glucose-6-phosphate (Sigma, G-7879) and 1.3 mM NADP+ (Sigma, N-0505).
After 60 min of incubation at 300 rpm and 37° C., the reaction was stopped with 3 volumes of STOP solution (acetonitrile/MeOH 2/1 with diclofenac as internal standard). For the time point zero, 3 volumes of STOP solution were added to the compound dilution before the microsome mix was added. Six time points over 60 minutes have been analyzed. The samples of all time points were centrifuged, filtered and the supernatant analyzed by LCMS/MS (systems API4000).
The instrument responses (peak areas/IS peak area) were referenced to the zero time-point samples (considered as 100%) in order to determine the percentage of compound remaining.
Testosterone (1 μM) and Propranolol and Caffeine (1 μM) were used as reference compounds, being unstable and stable compounds respectively. If the microsomal stability values for these controls are not in the range determined by the historical data, the assay is not validated. The solubility of the compound in the final test concentration in 50 mM buffer pH 7.4 is checked by microscope to indicate whether precipitation is observed or not. If a precipitate is observed, no data of microsomal stability is generated.

In a further data set the target is CYP2C9 (Homo sapiens (Human), UniProt P11712). The data set is described as follows: CYP inhibition, CYP2C9. The conditions noted are these: test compound at 10 μM, read-out: % Inhibition (PIN) 2C9. How it is done: The aim of this assay is to determine the inhibitory potential of a test compound. A major concern for drug-drug-interaction is cytochrome P450 inhibition. Reversible CYP inhibition was determined in human liver microsomes using specific probe substrates for human cytochrome P450 isoenzymes CYP1A2, 2C9, 2C19, 2D6 and 3A4.
The potential for CYP450 inhibition was assessed by performing in vitro inhibition studies using fluorogenic CYP450 substrates with the corresponding CYP450 enzymes and NADPH regeneration system (Vivid CYP450 Screening Kits) with some minor changes to the manufacturer's protocols. The fluorescent signal produced from reaction is directly proportional to the cytochrome P450 activity. In the cases when tested compounds interfere with the CYP450 enzyme-substrate reaction, the fluorescent signal decreases. […] After 10 minutes pre-incubation, the enzymatic reaction was initiated by the addition of a mix of NADPH and the appropriate CYP450 substrates. The plate was incubated for the desired reaction time (25 min for CYP1A2, CYP2C9, CYP2D6, and CYP3A4, 60 min for CYP2C19) after which Stop Reagent was added and fluorescence measured using SpectraMax Paradigm Multi-Mode Microplate Reader. All test points were performed in quadruplicates at concentration 10 μM (1% DMSO).
A 10 mM stock solution of test compound is prepared in methanol. This stock is further serially diluted 1:3 in methanol and then added to mixture containing 50 mM potassium phosphate buffer pH7.4, human liver microsomes (BD Gentest) and probe substrate. […]
After incubation at 37° C., the reaction (aliquot of 50 μL) is terminated with 150 μL CH3CN:MeOH (2:1) solution with internal standard (warfarin for 2C9, diclofenac for all other tested isoforms). Samples are centrifuged and the supernatant fractions analyzed by LC-MS/MS.
The instrument responses (ratio of test compound and internal standard peak areas) are referenced to those for solvent controls (assumed as 100%) in order to determine the percentage reduction in probe metabolism. Percent of control activity vs. concentration plots are generated and fitted using GraphPad Prism software to generate IC50.

Chain of CYP2C9 (P11712 whole entry): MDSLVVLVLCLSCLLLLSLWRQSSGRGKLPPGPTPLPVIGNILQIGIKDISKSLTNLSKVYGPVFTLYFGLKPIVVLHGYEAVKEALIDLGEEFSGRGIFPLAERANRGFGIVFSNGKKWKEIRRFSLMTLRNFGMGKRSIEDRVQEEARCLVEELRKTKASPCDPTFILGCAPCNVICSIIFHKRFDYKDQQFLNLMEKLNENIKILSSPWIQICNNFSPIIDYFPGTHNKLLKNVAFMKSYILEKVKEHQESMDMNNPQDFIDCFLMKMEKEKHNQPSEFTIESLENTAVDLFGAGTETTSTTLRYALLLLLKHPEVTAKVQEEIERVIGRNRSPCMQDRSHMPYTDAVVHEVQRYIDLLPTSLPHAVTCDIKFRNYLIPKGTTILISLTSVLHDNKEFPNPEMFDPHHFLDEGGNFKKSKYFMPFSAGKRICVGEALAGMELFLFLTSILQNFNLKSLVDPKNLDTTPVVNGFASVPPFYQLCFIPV

For `CC(C)Cc1cc(F)c(-c2nn[nH]n2)c(N2CCN(Cc3cccnn3)[C@@H](C)C2)c1` [Compound A-174, 3-[[(2S)-4-[3-fluoro-5-isobutyl-2-(2H-tetrazol-5-yl)phenyl]-2-methyl-piperazin-1-yl]methyl]pyridazine], the microsomal CLint is under 17.3 µL/min/mg in data set [1] and 15.3 µL/min/mg in data set [2]. Further, the inhibition at 10 µM on CYP2C9 was found to be 20.9%.
Taken in the same sequence, the figures for `CCC1CN(c2cc(CC(C)C)cc(F)c2-c2nn[nH]n2)CCN1Cc1cccnn1` (stereo not drawn) [Compound A-178, 3-[[2-ethyl-4-[3-fluoro-5-isobutyl-2-(2H-tetrazol-5-yl)phenyl]piperazin-1-yl]methyl]pyridazine] were 5 µL/min/mg, 15 µL/min/mg and 45.6%.
